The species entered for experiment [1] is Rattus norvegicus.
Description: Compound was evaluated for the binding affinity at crude mitochondrial fraction of rat whole brain at 7 nmol/mg of protein.
Experiment [2] is filed under the species Rattus norvegicus. This is another data set of the same source.
Description: Compound was evaluated for the binding affinity at crude mitochondrial fraction of rat whole brain at 13 fmol of binding sites/mg of protein

Consider `CN1CCC[C@H]1c1cccnc1`, for which the Ka in the experiment filed under Rattus norvegicus [1] came to 4400 M⁻¹; in the experiment filed under Rattus norvegicus [2], 4.7e+06 M⁻¹.

Values taken from ChEMBL document CHEMBL1121501, “Synthesis and preliminary binding studies of 4,4-ditritio-(-)-nicotine of high specific activity” (J Med Chem, 1980).
